# According to PubChem BioAssay AID2060605 (Molecular Pharmacology Branch, DTP, NCI, 2025):
# Tested on: 947758-054-R-J2-PDC spheroid growth, percent test/control
# Assay: Anticancer human tumor 947758-054-R-J2-PDC patient-derived colon adenocarcinoma cell line growth inhibition [CLK]
# Conditions: spheroids with HUVEC and MSC; for IC50: curve of first compound; for viability, T/C: stronger effect = lower value
# In short: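 Multi-cell-type spheroids combined patient-derived tumor cells with HUVEC endothelial cells and human mesenchymal stem cells. Paired agents were dosed in half-log steps down from about clinical Cmax, or from 10 microM where Cmax was unknown.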
# [1] = second compound 0.0316 µM, first compound 0.0316 µM
# [2] = second compound 0.0316 µM, first compound 0.1 µM
# [3] = second compound 0.0316 µM, first compound 0.316 µM
# [4] = second compound 0.0316 µM, first compound 1 µM
# [5] = second compound 0.0316 µM, first compound 3.16 µM
# [6] = second compound 0.0316 µM, first compound 10 µM
# [7] = second compound 0.1 µM, first compound 0.0316 µM
# [8] = second compound 0.1 µM, first compound 0.1 µM
# [9] = second compound 0.1 µM, first compound 0.316 µM
# [10] = second compound 0.1 µM, first compound 1 µM
# [11] = second compound 0.1 µM, first compound 3.16 µM
# [12] = second compound 0.1 µM, first compound 10 µM
# [13] = second compound 0.316 µM, first compound 0.0316 µM
# [14] = second compound 0.316 µM, first compound 0.1 µM
# [15] = second compound 0.316 µM, first compound 0.316 µM
# [16] = second compound 0.316 µM, first compound 1 µM
# [17] = second compound 0.316 µM, first compound 3.16 µM
# [18] = second compound 0.316 µM, first compound 10 µM
# [19] = second compound 1 µM, first compound 0.0316 µM
# [20] = second compound 1 µM, first compound 0.1 µM
# [21] = second compound 1 µM, first compound 0.316 µM
# [22] = second compound 1 µM, first compound 1 µM
# [23] = second compound 1 µM, first compound 3.16 µM
# [24] = second compound 1 µM, first compound 10 µM
# [25] = second compound 3.16 µM, first compound 0.0316 µM
# [26] = second compound 3.16 µM, first compound 0.1 µM
# [27] = second compound 3.16 µM, first compound 0.316 µM
# [28] = second compound 3.16 µM, first compound 1 µM
# [29] = second compound 3.16 µM, first compound 3.16 µM
# [30] = second compound 3.16 µM, first compound 10 µM
# [31] = second compound 10 µM, first compound 0.0316 µM
# [32] = second compound 10 µM, first compound 0.1 µM
# [33] = second compound 10 µM, first compound 0.316 µM
# [34] = second compound 10 µM, first compound 1 µM
# [35] = second compound 10 µM, first compound 3.16 µM
# [36] = second compound 10 µM, first compound 10 µM
# 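Also: spheroids exposed to compounds for one week before readout.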
# 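For viability, T/C in this document: 100% = DMSO vehicle control wells.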
compound,measurement,setting,value
CC1(C)CCC(CN2CCN(c3ccc(C(=O)NS(=O)(=O)c4ccc(NCC5CCOCC5)c([N+](=O)[O-])c4)c(Oc4cnc5[nH]ccc5c4)c3)CC2)=C(c2ccc(Cl)cc2)C1 + CN1CCN(c2cc(C(=O)Nc3cc4cc(-c5cnn(C)c5)ccc4cn3)ccn2)CC1,IC50,second compound 0.0316 µM,5540 nM
same,IC50,second compound 0.1 µM,6730 nM
same,IC50,second compound 0.316 µM,< 31.6 nM
same,IC50,second compound 1 µM,< 31.6 nM
same,IC50,second compound 3.16 µM,< 31.6 nM
same,IC50,second compound 10 µM,< 31.6 nM
same,"viability, T/C",[1],106%
same,"viability, T/C",[2],142%
same,"viability, T/C",[3],113%
same,"viability, T/C",[4],86.5%
same,"viability, T/C",[5],101%
same,"viability, T/C",[6],6.09%
same,"viability, T/C",[7],174%
same,"viability, T/C",[8],220%
same,"viability, T/C",[9],181%
same,"viability, T/C",[10],178%
same,"viability, T/C",[11],139%
same,"viability, T/C",[12],2.94%
same,"viability, T/C",[13],4.83%
same,"viability, T/C",[14],6.64%
same,"viability, T/C",[15],4.64%
same,"viability, T/C",[16],5.62%
same,"viability, T/C",[17],4.76%
same,"viability, T/C",[18],2.09%
same,"viability, T/C",[19],0.18%
same,"viability, T/C",[20],2.13%
same,"viability, T/C",[21],1.78%
same,"viability, T/C",[22],0.17%
same,"viability, T/C",[23],1.22%
same,"viability, T/C",[24],0.59%
same,"viability, T/C",[25],0.97%
same,"viability, T/C",[26],1.19%
same,"viability, T/C",[27],0.31%
same,"viability, T/C",[28],0.2%
same,"viability, T/C",[29],0.16%
same,"viability, T/C",[30],3.63%
same,"viability, T/C",[31],0.86%
same,"viability, T/C",[32],3.93%
same,"viability, T/C",[33],1.09%
same,"viability, T/C",[34],0.43%
same,"viability, T/C",[35],0.52%
same,"viability, T/C",[36],0.32%
CC1COCCN1c1cc(C2(S(C)(=N)=O)CC2)nc(-c2ccnc3[nH]ccc23)n1 (centres undefined) + CN1CCN(c2cc(C(=O)Nc3cc4cc(-c5cnn(C)c5)ccc4cn3)ccn2)CC1,IC50,second compound 0.0316 µM,8190 nM
same,IC50,second compound 0.1 µM,4290 nM
same,IC50,second compound 0.316 µM,< 31.6 nM
same,IC50,second compound 1 µM,< 31.6 nM
same,IC50,second compound 3.16 µM,< 31.6 nM
same,IC50,second compound 10 µM,< 31.6 nM
same,"viability, T/C",[1],129%
same,"viability, T/C",[2],130%
same,"viability, T/C",[3],147%
same,"viability, T/C",[4],208%
same,"viability, T/C",[5],174%
same,"viability, T/C",[6],27.1%
same,"viability, T/C",[7],156%
same,"viability, T/C",[8],161%
same,"viability, T/C",[9],134%
same,"viability, T/C",[10],111%
same,"viability, T/C",[11],59.6%
same,"viability, T/C",[12],20.6%
same,"viability, T/C",[13],4.56%
same,"viability, T/C",[14],7.68%
same,"viability, T/C",[15],5.32%
same,"viability, T/C",[16],4.07%
same,"viability, T/C",[17],7.49%
same,"viability, T/C",[18],2.19%
same,"viability, T/C",[19],0.17%
same,"viability, T/C",[20],0.18%
same,"viability, T/C",[21],0.17%
same,"viability, T/C",[22],2.01%
same,"viability, T/C",[23],2.61%
same,"viability, T/C",[24],0.13%
same,"viability, T/C",[25],0.74%
same,"viability, T/C",[26],0.2%
same,"viability, T/C",[27],0.39%
same,"viability, T/C",[28],1.46%
same,"viability, T/C",[29],1.04%
same,"viability, T/C",[30],0.96%
same,"viability, T/C",[31],1.2%
same,"viability, T/C",[32],0.28%
same,"viability, T/C",[33],1.41%
same,"viability, T/C",[34],1.13%
same,"viability, T/C",[35],1.09%
same,"viability, T/C",[36],0.51%
